The text below walks through data of ChEMBL document CHEMBL1124587 (J Med Chem, 1989).

The nature of data set [1]: Partition coefficient (logD). The conditions noted are these: octanol/water.
Data set [2] deals with Glycine receptor (Rattus norvegicus). Kind of data set: Inhibition of binding of [3H]strychnine to glycine receptor.
Data set [3] in a line: Inhibition of binding of [3H]strychnine to glycine receptor in rat.

As to `Oc1coc2cc[nH]c12`, the lipophilicity (logP) in data set [1] is 1.07.

Consider `Oc1coc2[nH]cnc12`, for which the logP in data set [1] worked out at 0.33.

For the compound `Nc1c(C(F)(F)F)n[nH]c1O`, the IC50 in data set [2] worked out at 418 µM.

`NCC(=O)O` [GLYCINE]: the IC50 in data set [3] is 6 µM.

Compound `CNCC(=O)O` [SARCOSINE] had an IC50 in data set [3] of 350 µM.

Consider `Nc1ccccc1O` [QUESTIOMYCIN B], for which the logP in data set [1] came to 0.65.

With `COc1ccc(-c2[nH]nc(O)c2N)cc1`, the logP in data set [1] was 0.85.
